Results from US9062078B2, “Substituted 7-azabicyles and their use as orexin receptor modulators” (priority 2013, dated 2015).
Read-outs that look alike come from different tables or passages of the source.

Experiments:
rat orexin 1 receptor = rat orexin 1 receptor (Rattus norvegicus, UniProt P56718); experiment: Rat orexin 1 receptor radioligand binding (competitive, [3H]-SB674042, HEK293 cell preparations)
human orexin 2 receptor = human orexin 2 receptor (Homo sapiens (Human), UniProt O43614); experiment: Human orexin 2 receptor radioligand binding (competitive, [3H]-EMPA, HEK293 cell preparations)
[1] = rat orexin 1 receptor, [3H]-SB674042 competition binding, read-out: rOX1 Ki (nm)
[2] = human orexin 2 receptor, [3H]-EMPA competition binding, read-out: hOX2 Ki (nm)

Sequence of human orexin 2 receptor (O43614 whole entry): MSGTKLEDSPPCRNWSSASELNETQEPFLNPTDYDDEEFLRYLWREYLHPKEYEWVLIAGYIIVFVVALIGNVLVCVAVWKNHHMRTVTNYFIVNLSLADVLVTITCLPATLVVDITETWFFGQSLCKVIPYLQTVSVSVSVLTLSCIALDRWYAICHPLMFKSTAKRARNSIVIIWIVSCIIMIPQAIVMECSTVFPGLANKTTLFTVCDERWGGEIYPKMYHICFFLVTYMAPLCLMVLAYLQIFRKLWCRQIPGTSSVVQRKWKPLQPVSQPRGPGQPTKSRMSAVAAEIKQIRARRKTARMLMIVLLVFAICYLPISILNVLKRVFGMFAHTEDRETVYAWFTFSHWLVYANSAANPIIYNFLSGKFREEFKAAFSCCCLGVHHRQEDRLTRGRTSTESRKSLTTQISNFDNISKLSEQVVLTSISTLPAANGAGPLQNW

Row | Structure (SMILES) | Ki (rat orexin 1 receptor; [1]) | Ki (human orexin 2 receptor; hOX2 Ki (nm)) | Ki (human orexin 2 receptor; [2]) | Ki (rat orexin 1 receptor; rOX1 Ki (nm))
1 | O=C(c1ccccc1-n1nccn1)N1C2CCC1C(Nc1ccc(C(F)(F)F)nn1)C2 (racemic) [Example 212, (±)-(2-(2H-1,2,3-triazol-2-yl)phenyl)(2-(6-(trifluoromethyl)pyridazin-3-yl)amino)-7-azabicyclo[2.2.1]heptan-7-yl)methanone] | 0.734 µM | 4.9 µM |  | 
2 | COc1ccc(NC2CC3CCC2N3C(=O)c2ccccc2-n2nccn2)nc1 (racemic) [Example 213, (±)-(2-(2H-1,2,3-triazol-2-yl)phenyl)(2-((5-methoxypyridin-2-yl)amino)-7-azabicyclo[2.2.1]heptan-7-yl)methanone] | 2.8 µM |  | 7.5 µM | 
3 | Cc1ccc(NC2CC3CCC2N3C(=O)c2ccccc2-n2nccn2)nc1 (racemic) [Example 214, (±)-(2-(2H-1,2,3-triazol-2-yl)phenyl)(2-(((5-methylpyridin-2-yl)amino)-7-azabicyclo[2.2.1]heptan-7-yl)methanone] |  | 3.1 µM |  | 0.5 µM
4 | O=C(c1ccccc1-n1nccn1)N1C2CCC1C(Nc1ccccn1)C2 (racemic) [Example 215, (±)-(2-(2H-1,2,3-triazol-2-yl)phenyl)(2-(pyridin-2-ylamino)-7-azabicyclo[2.2.1]heptan-7-yl)methanone] | 1.7 µM |  | 9 µM | 
5 | COc1c(F)cccc1C(=O)N1C2CCC1C(Nc1ccc(Br)cn1)C2 (racemic) [Example 218, (±)-(2-((5-bromopyridin-2-yl)amino)-7-azabicyclo[2.2.1]heptan-7-yl)(3-fluoro-2-methoxyphenyl)methanone] |  |  | 6.7 µM | 2.7 µM
6 | CCOc1ccc(C)nc1C(=O)N1C2CCC1C(Nc1ccc(Br)cn1)C2 (racemic) [Example 219, (±)-(2-((5-bromopyridin-2-yl)amino)-7-azabicyclo[2.2.1]heptan-7-yl)(3-ethoxy-6-methylpyridin-2-yl)methanone] | 0.257 µM |  | 1.7 µM | 
7 | COc1c(F)cccc1C(=O)N1C2CCC1C(Nc1ncc(C(F)(F)F)cn1)C2 (racemic) [Example 222, (±)-(3-fluoro-2-methoxyphenyl)(2-(5-(trifluoromethyl)pyrimidin-2-yl)amino)-7-azabicyclo[2.2.1]heptan-7-yl)methanone] |  |  | > 10 µM | 4.8 µM
8 | Cc1ccc(-n2nccn2)c(C(=O)N2C3CCC2C(Nc2ncc(C(F)(F)F)cn2)C3)n1 (racemic) [Example 223, (±)-(6-methyl-3-(2H-1,2,3-triazol-2-yl)pyridin-2-yl)(2-((5-(trifluoromethyl)pyrimidin-2-yl)amino)-7-azabicyclo[2.2.1]heptan-7-yl)methanone] |  |  | 4 µM | 0.55 µM
9 | Cc1ccc(-c2ncccn2)c(C(=O)N2C3CCC2C(Nc2ncc(C(F)(F)F)cn2)C3)n1 (racemic) [Example 225, (±)-(6-methyl-3-(pyrimidin-2-yl)pyridin-2-yl)(2-(5-(trifluoromethyl)pyrimidin-2-yl)amino)-7-azabicyclo[2.2.1]heptan-7-yl)methanone] | 0.53 µM |  | 3.3 µM | 
10 | COc1c(F)cccc1C(=O)N1C2CCC1C(Nc1ncc(C(F)(F)F)cn1)C2 (racemic) [Example 226, (±)-(3-fluoro-2-methoxyphenyl)(2-(5-(trifluoromethyl)pyrimidin-2-yl)amino)-7-azabicyclo[2.2.1]heptan-7-yl)methanone] |  |  | > 10 µM | > 10 µM
11 | Cc1ccc(-n2nccn2)c(C(=O)N2C3CCC2C(Nc2ncc(C(F)(F)F)cn2)C3)n1 (racemic) [Example 228, (±)-(6-methyl-3-(2H-1,2,3-triazol-2-yl)pyridin-2-yl)(2-((5-(trifluoromethyl)pyrimidin-2-yl)amino)-7-azabicyclo[2.2.1]heptan-7-yl)methanone] |  |  | > 10 µM | > 10 µM
12 | Cc1ccc(-n2nccn2)c(C(=O)N2C3CCC2C(Nc2cnc4ccccc4n2)C3)n1 (racemic) [Example 230, (±)-(6-methyl-3-(2H-1,2,3-triazol-2-yl)pyridin-2-yl)(2-(quinoxalin-2-ylamino)-7-azabicyclo[2.2.1]heptan-7-yl)methanone] |  | > 10 µM |  | > 10 µM
